Source: PMC5907398, “Inhibition of Acetylcholinesterase and Butyrylcholinesterase by a Plant Secondary Metabolite Boldine” (BioMed Research International, 2018)

Legend:
[1] = biological target: T1, Acetylcholinesterase (AChE) (Homo sapiens, UniProt P22303); assay: Ellman spectrophotometric assay with acetylthiocholine, Dixon plot; type: biochemical; settings: read-out: IC50 (μmol/l) by spectrophotometry
T1 construct: human, recombinant (expressed in HEK 293 cells)

[2] = biological target: T2, Butyrylcholinesterase (BChE) (Homo sapiens, UniProt P06276); assay: Ellman spectrophotometric assay with butyrylthiocholine, Dixon plot; type: biochemical; settings: read-out: IC50 (μmol/l) by spectrophotometry
T2 construct: from human serum
T2 sequence (P06276 29-602): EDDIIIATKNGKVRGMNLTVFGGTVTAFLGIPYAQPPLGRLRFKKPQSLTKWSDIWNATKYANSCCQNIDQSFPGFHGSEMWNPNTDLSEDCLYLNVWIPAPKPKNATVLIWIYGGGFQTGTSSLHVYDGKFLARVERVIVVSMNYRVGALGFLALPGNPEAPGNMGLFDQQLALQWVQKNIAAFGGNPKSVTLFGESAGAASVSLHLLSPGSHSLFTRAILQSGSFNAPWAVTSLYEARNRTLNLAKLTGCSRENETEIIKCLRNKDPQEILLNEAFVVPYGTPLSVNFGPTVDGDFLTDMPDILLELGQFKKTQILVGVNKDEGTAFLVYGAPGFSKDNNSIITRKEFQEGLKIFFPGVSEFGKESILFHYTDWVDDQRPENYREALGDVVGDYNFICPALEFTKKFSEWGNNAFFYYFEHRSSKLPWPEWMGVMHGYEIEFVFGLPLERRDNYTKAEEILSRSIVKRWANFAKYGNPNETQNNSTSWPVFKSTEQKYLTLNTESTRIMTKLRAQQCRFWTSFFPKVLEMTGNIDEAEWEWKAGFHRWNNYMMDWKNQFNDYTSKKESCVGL

T1 sequence (P22303 32-614): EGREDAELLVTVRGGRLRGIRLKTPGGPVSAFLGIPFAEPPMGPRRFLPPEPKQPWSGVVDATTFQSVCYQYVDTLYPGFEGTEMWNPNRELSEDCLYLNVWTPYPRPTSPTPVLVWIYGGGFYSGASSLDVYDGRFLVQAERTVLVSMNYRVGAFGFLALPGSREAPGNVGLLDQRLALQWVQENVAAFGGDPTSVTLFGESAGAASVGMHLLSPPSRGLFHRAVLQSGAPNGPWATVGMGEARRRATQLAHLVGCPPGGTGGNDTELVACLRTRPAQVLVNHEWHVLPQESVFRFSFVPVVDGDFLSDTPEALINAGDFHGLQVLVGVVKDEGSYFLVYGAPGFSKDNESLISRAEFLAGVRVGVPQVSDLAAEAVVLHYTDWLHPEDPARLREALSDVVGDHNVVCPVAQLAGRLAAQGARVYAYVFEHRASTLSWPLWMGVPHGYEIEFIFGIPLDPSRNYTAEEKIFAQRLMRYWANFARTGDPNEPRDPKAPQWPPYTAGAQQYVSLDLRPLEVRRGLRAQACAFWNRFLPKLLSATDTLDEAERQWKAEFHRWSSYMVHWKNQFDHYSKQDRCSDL

Structure (SMILES): COc1cc2c(cc1O)C[C@H]1c3c(cc(O)c(OC)c3-2)CCN1C [boldine, (S)-2,9-dihydroxy-1,10-dimethoxy-aporphine]
- IC50 [1]: 372 µmol/L
- IC50 [2]: 322 µmol/L
